How the values were obtained:
FAAH [1] = molecular target: T1, FAAH (Mus musculus, UniProt O08914); test: In vivo FAAH inhibition after oral dosing, remaining activity in liver homogenate (LVh, peripheral tissue); parameters: species or system NMRI mice; details: liver homogenate, 3 mg/kg, 8 h after dosing; low value = strong inhibitor
T1 construct: A fragment of liver, left lung lobe and brain without cerebellum were removed; from tissue; host or cells: male NMRI mice; brain (without cerebellum) and liver homogenates
T1 sequence (O08914 1-579): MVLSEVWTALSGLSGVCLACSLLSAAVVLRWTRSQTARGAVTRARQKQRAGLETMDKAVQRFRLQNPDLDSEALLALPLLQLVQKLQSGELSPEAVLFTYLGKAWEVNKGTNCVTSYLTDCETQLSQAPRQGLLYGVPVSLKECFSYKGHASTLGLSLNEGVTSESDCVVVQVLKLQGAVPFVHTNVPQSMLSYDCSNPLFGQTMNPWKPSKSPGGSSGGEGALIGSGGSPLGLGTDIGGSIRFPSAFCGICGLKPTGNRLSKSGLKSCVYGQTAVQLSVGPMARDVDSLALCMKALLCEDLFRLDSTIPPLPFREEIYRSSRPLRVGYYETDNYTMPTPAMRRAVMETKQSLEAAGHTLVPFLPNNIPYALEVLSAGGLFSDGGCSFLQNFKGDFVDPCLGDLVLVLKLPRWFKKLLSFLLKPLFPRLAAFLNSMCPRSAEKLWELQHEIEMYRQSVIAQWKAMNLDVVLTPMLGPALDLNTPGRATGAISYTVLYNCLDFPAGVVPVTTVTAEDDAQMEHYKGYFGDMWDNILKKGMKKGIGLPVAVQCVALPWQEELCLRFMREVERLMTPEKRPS
Summary of the method: (§1)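 Remaining FAAH activity is given as % of vehicle-treated controls after blank subtraction, measured by radiolabelled AEA hydrolysis (2 μM AEA, 5 nM 3H-AEA, 37 °C) in brain (10 min) or liver (7 min) homogenates. These came from fasted male NMRI mice dosed orally at 30 or 3 mg/kg.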

FAAH [2] = molecular target: T1, FAAH; test: In vivo FAAH inhibition after oral dosing, remaining activity in brain homogenate (BRh, central nervous tissue); parameters: species or system NMRI mice; details: brain homogenate, 3 mg/kg, 8 h after dosing; low value = strong inhibitor
Summary of the method: as §1

FAAH [3] = molecular target: T2, FAAH (Rattus norvegicus, UniProt P97612); test: In vitro FAAH activity in rat brain membranes, 3H-AEA substrate, % of control; format: biochemical, Wistar rats; details: rat brain membranes, compound at 100 nM, low value = strong inhibitor
T2 construct: Frozen brains (without cerebellum) from Wistar rats were used; from tissue; host or cells: Wistar rat brain (without cerebellum), washed membrane pellets
T2 sequence (P97612 1-579): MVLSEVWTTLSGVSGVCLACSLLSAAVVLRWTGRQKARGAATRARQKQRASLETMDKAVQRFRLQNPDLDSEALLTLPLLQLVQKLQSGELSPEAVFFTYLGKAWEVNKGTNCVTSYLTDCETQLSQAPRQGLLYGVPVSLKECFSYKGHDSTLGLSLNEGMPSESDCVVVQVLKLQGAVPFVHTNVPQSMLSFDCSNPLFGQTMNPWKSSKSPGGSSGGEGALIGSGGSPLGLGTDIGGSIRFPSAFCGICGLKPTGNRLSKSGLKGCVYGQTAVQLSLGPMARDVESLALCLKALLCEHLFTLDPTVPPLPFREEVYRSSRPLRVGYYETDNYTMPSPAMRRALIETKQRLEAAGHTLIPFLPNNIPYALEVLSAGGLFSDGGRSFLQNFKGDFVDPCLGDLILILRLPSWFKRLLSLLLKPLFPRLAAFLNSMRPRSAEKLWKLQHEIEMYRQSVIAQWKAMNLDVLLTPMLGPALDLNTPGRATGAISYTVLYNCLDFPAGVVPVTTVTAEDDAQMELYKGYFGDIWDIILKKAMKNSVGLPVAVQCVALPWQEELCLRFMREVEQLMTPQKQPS
Summary of the method: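 FAAH activity measured as 3H-ethanolamine released from 2 μM [3H]AEA over 10 min by rat brain membrane preparation, after 15 min 37 °C preincubation with test compound at 10 or 0.1 μM. Charcoal-separated supernatant scintillation-counted; values expressed as % of control minus no-protein blank.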

Compound | In Vivo LVh 3 mg·kg 8 h (remaining FAAH activity, % of control) (FAAH [1]) | In Vivo BRh 3 mg·kg 8 h (remaining FAAH activity, % of control) (FAAH [2]) | In Vitro 100 nM (FAAH activity, % of control) (FAAH [3])
CC1(C)COCN1C(=O)n1cnc(-c2ccccc2)c1Cl [Compound 295, (5-chloro-4-phenyl-1H-imidazol-1-yl)(4,4-dimethyloxazolidin-3-yl)methanone] | 32.4 % of control | 77.9 % of control | 99.2 % of control
CN(C(=O)n1cnc(-c2cccc(O)c2)c1)C1CCCCC1 [Compound 307, N-cyclohexyl-4-(3-hydroxyphenyl)-N-methyl-1H-imidazole-1-carboxamide] | 10.1 % of control | 137.6 % of control | 56.2 % of control
COc1cccc(-c2cn(C(=O)N3COCC3(C)C)cn2)c1 [Compound 329, (4,4-dimethyloxazolidin-3-yl)(4-(3-methoxyphenyl)-1H-imidazol-1-yl)methanone] | 18.5 % of control | 83.3 % of control | 99.5 % of control
CC1(C)COCN1C(=O)n1cnc(-c2ccc(O)c(F)c2)c1 [Compound 332, (4,4-dimethyloxazolidin-3-yl)(4-(3-fluoro-4-hydroxyphenyl)-1H-imidazol-1-yl)methanone] | 19.5 % of control | 60 % of control | 88.5 % of control
CC1(C)COCN1C(=O)n1cnc(-c2ccc(F)c(O)c2)c1 [Compound 333, (4,4-dimethyloxazolidin-3-yl)(4-(4-fluoro-3-hydroxyphenyl)-1H-imidazol-1-yl)methanone] | 81.5 % of control | 119 % of control | 81.9 % of control
CN(C(=O)n1cnc(-c2cc3ccccc3o2)c1)C1CCCCC1 [Compound 334, 4-(benzofuran-2-yl)-N-cyclohexyl-N-methyl-1H-imidazole-1-carboxamide] | 5.1 % of control | 9.9 % of control | 58.2 % of control

Further lines, results first:

In Vivo LVh 3 mg·kg 8 h (remaining FAAH activity, % of control) (FAAH [1]) | In Vivo BRh 3 mg·kg 8 h (remaining FAAH activity, % of control) (FAAH [2]) | In Vitro 100 nM (FAAH activity, % of control) (FAAH [3]) | Compound
48 % of control | 84.3 % of control | 84.3 % of control | COc1ccc(-c2cn(C(=O)N(C)C3CCCCC3)cn2)cc1F [Compound 314, N-cyclohexyl-4-(3-fluoro-4-methoxyphenyl)-N-methyl-1H-imidazole-1-carboxamide]
2 % of control | 5.9 % of control | 19.2 % of control | COc1cc(-c2cn(C(=O)N(C)C3CCCCC3)cn2)ccc1F [Compound 319, N-cyclohexyl-4-(4-fluoro-3-methoxyphenyl)-N-methyl-1H-imidazole-1-carboxamide]
11.1 % of control | 22.8 % of control | 29.7 % of control | CN(C(=O)n1cnc(-c2ccc(O)c(F)c2)c1)C1CCCCC1 [Compound 330, N-cyclohexyl-4-(3-fluoro-4-hydroxyphenyl)-N-methyl-1H-imidazole-1-carboxamide]
4.9 % of control | 4 % of control | 3.6 % of control | CN(C(=O)n1cnc(-c2ccc(O)c(F)c2)c1)C1CCCC1 [Compound 331, N-cyclopentyl-4-(3-fluoro-4-hydroxyphenyl)-N-methyl-1H-imidazole-1-carboxamide]

Reference: patent US9353082B2, “Pharmaceutical compounds” (BIAL—PORTELA & CA, S.A., priority 2008, dated 2016)
